Experimental data from patent US20090214637A1, “Novel Gene Therapy Approach For Treating The Metabolic Disorder Obesity” (NEUROLOGIX, INC., priority 2007, published 2009).

Key:
[1] = 2-DG induced food intake versus saline; format: in vivo, mice; details: over 4 h, compared to saline
Excerpt: FIG. 8A-B depicts the effect of Hip2 silencing on the response to 2-deoxy-D-glucose (2-DG) induced hypoglycemia.
Silencing of Hip2 was achieved by AAV vectors encoding the Hip2 small hairpin RNA (Hip2 shRNA) delivered into the VMN region of the brain via injection. AAV vectors encoding the luciferase shRNA were used as controls. […] Furthermore, reduction of Hip2 levels also had no effect on the ability of the VMN neurons to sense glucose levels in blood.

primary VMN neurons = experiment: Number of glucose sensing neurons after estradiol, calcium imaging; format: cell-based; details: 1 nM, 24 h, primary VMN neurons from female rats
Procedure: Overexpression of ERα in a murine hypothalamic cell line […] (FIG. 9A-C) has led to upregulation of glucose sensing genes. In order to determine whether these effects are also dependent on estrogen, primary VMN neurons from female rats were treated 17-β-estradiol at physiological levels (1 nM) and the number of glucose sensing neurons were measured in 24 h using calcium imaging.

dissociated VMN neurons = experiment: Depolarization of dissociated VMN neurons by 17β-estradiol; format: cell-based, mice; details: 1 nM or 10 nM

O=CC[C@@H](O)[C@H](O)[C@H](O)CO [2-DG, 2-deoxy-D-glucose]
food intake [1]: significantly increased food intake

C[C@]12CC[C@@H]3c4ccc(O)cc4CC[C@H]3[C@@H]1CC[C@@H]2O [17β-estradiol]
number of glucose-excited neurons (primary VMN neurons): increased the number of glucose-excited neurons
depolarization of cells with nuclear ERα staining (dissociated VMN neurons): did not depolarize
depolarization of membrane ERα-immunoreactive cells (dissociated VMN neurons; dissociated VMN neurons from postnatal female mice): majority of membrane ERα-immunoreactive cells depolarized
